These results are taken from patent US20100279918A1, “Chimeric Constructs Between Cancer-Homing Peptides and Cell-Penetrating Peptides Coupled to Anticancer Drugs and/or Diagnostic Agent/Agents” (Burnham Institute for Medical Research, priority 2006, published 2010).

Usually IC50 stands for the concentration that gives 50% inhibition.

Data set [1] has as its system MCF-7 cells. Briefly: Toxicity study (CellTiter-Glo). How it is done: FIG. 11. Cytotoxicity study of pVEC (SEQ ID NO:6) in MCF-7 cell line. Cells were exposed to different concentrations of pVEC solution in 150 μl of 1% FBS containing media and incubated for 2 h or 48 h at 37° C. The plate was cooled to room temperature, CellTiter-Glo® Reagent (150 μl) was added and the luminescence was measured. The percent of viable cells was compared to the non-treated cells.
FIG. 12. Cytotoxicity study of Cbl and Cbl conjugated peptides in MCF-7 cell line. Cells were exposed to different concentrations of Cbl, Cbl-pVEC (SEQ ID NO:6), Cbl-CREKA-pVEC (SEQ ID NO:22) and Cbl-PEGA-pVEC (SEQ ID NO:21) (0, 1, 5, 55, 100, 150, 200, 400 and 800 (only with Cbl) μM) solution in 150 μl of 1% FBS containing complete media and incubated for 3 h at 37° C. After that 150 μl of 10% FBS containing media was added and the cells were incubated additionally for 45 h at 37° C. (altogether 48 h). The plate was cooled to room temperature, CellTiter-Glo® Reagent (150 μl) was added and the luminescence was measured. The percent of viable cells was compared to the non-treated cells. IC50 values were calculated using GraphPad Prism 4 software.
MCF-7 and MDA-MB-231 cells (20 000 cells/well) were seeded in a 48 well plate two days before the experiment. The cells were exposed to drug in different concentration in full media containing 1% FBS for 3 h where after 10% FBS containing full media was added to achieve 5% FBS containing media and then incubated 45 or 69 h at 37° C. The plate was cooled to room temperature and CellTiter-Glo® Reagent (Promega) was added. The plate was incubated for 10 min at room temperature where after the luminescence was measured.
For orientation: ATP-based viability assays read luminescence as a measure of living cells.

Data set [2] has as its system tumor mice. As to conditions: about 300 μg per mouse for 15 days; cited from earlier work.
The subject of data set [3] is MDA-MB-231 cells. Briefly: Toxicity study (CellTiter-Glo). The data set is classed as cell-based, human. As to the method: FIG. 13. Cytotoxicity study of Cbl and Cbl conjugated peptides in MDA-MB-231 cell line. […] (altogether 48 h). […] IC50 values were calculated using GraphPad Prism 4 software.
Data set [4] deals with MDA-MB-435 orthotopic xenograft tumors. Put plainly: Treatment of mice bearing MDA-MB-435 tumors with Cbl-peptide conjugates (tumor growth). The data set is classed as in vivo, nude Balb/c mice. The conditions noted are these: 15 μg Cbl-equivalent/mouse i.v. every other day, seven times; p<0.01 vs controls. How it is done:
FIG. 26. The inhibition of MDA-MB-435 tumor growth in mice with the Cbl-CREKA-pVEC (SEQ ID NO:22) conjugates. The MDA-MB-435 orthotopic xenografted mice (8 mice/group) were systemically treated with 15 μg of Cbl equivalent of Cbl-CREKA-pVEC (SEQ ID NO:22) and of the controls.
The orthotopic xenografted breast tumors were established by injecting 1×10^6 MDA-MB-435 human breast cancer cells into the mammary fat pad of nude Balb/c mice. Treatment started when mean tumor volumes reached about 100 mm^3. Mice with size-matched tumors were randomized into five groups (eight animals per group): Cbl-CREKA-pVEC (SEQ ID NO:22), Cbl plus CREKA-pVEC, Cbl-CREKA (SEQ ID NO:1), Cbl-pVEC (SEQ ID NO:6) and PBS. Mice were treated intravenously with 15 μg of Cbl-equivalent/mouse every other day for seven times. Tumor size was measured every three days. The mice were monitored for weight loss. The animal experiments reported here were approved by the Animal Research Committee of Burnham Institute for Medical Research.

Setting [5] is: read-out: IC50 value (cytotoxicity), MCF-7, 3 h in 1% FBS media, then 45 h (altogether 48 h).
[6] abbreviates: MDA-MB-231, 3 h in 1% FBS media, then 45 h (altogether 48 h), read-out: IC50 value (cytotoxicity).

“Also recorded” adds a separate entry of the source. Read-outs that look alike come from different tables or passages of the source. Where a SMILES comes first, the peptide text is derived from it. Bridges are numbered along the chain shown (N, C = ends). The star is where a group is joined. Chlorambucil = O=C(CCCc1ccc(N(CCCl)CCCl)cc1)*

For the compound `O=C(O)CCCc1ccc(N(CCCl)CCCl)cc1` [Cbl, reference compound], the IC50 in data set [1] (Homo sapiens, MCF7, read-out: IC50 value (cytotoxicity)) came out at 128 µM; in data set [3] (Homo sapiens, MDA-MB-231, read-out: IC50 value (cytotoxicity)) it was 164 µM. Further, the ED15d dose in data set [2] was 15 mg/kg.
For `CC[C@H](C)[C@H](NC(=O)[C@H](CCCNC(=N)N)NC(=O)[C@H](CCCNC(=N)N)NC(=O)[C@H](CCCNC(=N)N)NC(=O)[C@H](CC(C)C)NC(=O)[C@@H](NC(=O)[C@@H](NC(=O)[C@H](CC(C)C)NC(=O)[C@H](CC(C)C)NC(=O)[C@H](C)NC(=O)[C@H](CCCCN)NC(=O)[C@H](CCC(=O)O)NC(=O)[C@H](CCCNC(=N)N)NC(=O)[C@H](CS)NC(=O)CCCc1ccc(N(CCCl)CCCl)cc1)[C@@H](C)CC)[C@@H](C)CC)C(=O)N[C@@H](CCCNC(=N)N)C(=O)N[C@@H](CCCCN)C(=O)N[C@@H](CCC(N)=O)C(=O)N[C@@H](C)C(=O)N[C@@H](Cc1c[nH]cn1)C(=O)N[C@@H](C)C(=O)N[C@@H](Cc1c[nH]cn1)C(=O)N[C@@H](CO)C(=O)N[C@@H](CCCCN)C(N)=O` [Cbl-CREKA-pVEC] (Chlorambucil-CREKALLIILRRRIRKQAHAHSK-NH2), the IC50 in data set [1] (setting [5]) was 10.5 µM; in data set [3] (setting [6]) it was 8.2 µM. Besides, the “inhibition of tumor growth compared with control groups” value in data set [4] is recorded as “significant decrease in tumor growth; also recorded: significant inhibition of tumor growth”.
As for `CC[C@H](C)[C@H](NC(=O)[C@H](CCCNC(=N)N)NC(=O)[C@H](CCCNC(=N)N)NC(=O)[C@H](CCCNC(=N)N)NC(=O)[C@H](CC(C)C)NC(=O)[C@@H](NC(=O)[C@@H](NC(=O)[C@H](CC(C)C)NC(=O)[C@H](CC(C)C)NC(=O)[C@@H]1CSSC[C@H](NC(=O)CCCc2ccc(N(CCCl)CCCl)cc2)C(=O)N2CCC[C@H]2C(=O)NCC(=O)N2CCC[C@H]2C(=O)N[C@@H](CCC(=O)O)C(=O)NCC(=O)N[C@@H](C)C(=O)NCC(=O)N1)[C@@H](C)CC)[C@@H](C)CC)C(=O)N[C@@H](CCCNC(=N)N)C(=O)N[C@@H](CCCCN)C(=O)N[C@@H](CCC(N)=O)C(=O)N[C@@H](C)C(=O)N[C@@H](Cc1c[nH]cn1)C(=O)N[C@@H](C)C(=O)N[C@@H](Cc1c[nH]cn1)C(=O)N[C@@H](CO)C(=O)N[C@@H](CCCCN)C(N)=O` [Cbl-PEGA-pVEC] (Chlorambucil-CPGPEGAGCLLIILRRRIRKQAHAHSK-NH2; disulfide 1-9), the half-maximal inhibitory concentration (IC50) in data set [1] (setting [5]) was 29.9 µM; in data set [3] (setting [6]), 37.4 µM.
